In patent EP1832576A1, “4-Biarylyl-1-phenolyzetidin-2-ones” (Microbia Inc., priority 2003, dated 2005):

Test system: cholesterol absorption from the intestine
Assay: In Vivo Assay of Hypolipidemic Agents using the Rat Cholesterol Absorption Model
Design: species or system Female Sprague-Dawley rats
Settings: for inhibition at 10 mg/kg: Table 1, footnote 1, perorally; for inhibition at 0.3 mg/kg: Table 2, footnote 6, perorally
Protocol: In Vivo Assay of Hypolipidemic Agents using the Rat Cholesterol Absorption Model. This model is based on models described by Burnett et al (2002), Bioorg. Med. Chem. Lett. 2002 Feb 11;12(3):315-8 and J. Lipid Res. 1999 Oct;40(10):1747-57. Female Sprague-Dawley rats weighing 150-250g are separated into […] and fasted overnight. The animals (4-6/group) are dosed perorally with 300µL test compounds in olive oil or suitable vehicle. Thirty minutes later, 3-5 microCuries ^3H-cholesterol per rat are delivered perorally in 300 µL olive oil. After three hours, 200 µL serum is collected, vortexed with scintillation fluid, and measured for radioactivity in a scintillation counter. Percent inhibition is defined as 100*(1-Ctest/Cctrl), where Ctest and Cctrl refer to ^3H levels in serum for the test compound and for the vehicle only control, respectively. Percent inhibition values are reported for a fixed dose. The ED50 is the dose at which the half-maximal effect on serum ^3H levels is observed for a given test compound.
Representative compounds of the invention were tested in the Rat Cholesterol Absorption model above.

[1] = po, Table 1, perorally, 1 mg/kg, 3H levels in serum three hours after 3H-cholesterol, versus vehicle only control
[2] = po, 3H levels in serum three hours after 3H-cholesterol
[3] = po, Table 2, perorally, 1 mg/kg, 3H levels in serum three hours after 3H-cholesterol, versus vehicle only control

Molecule `O=C1[C@H](CC[C@H](O)c2ccc(F)cc2)[C@@H](c2ccc(-c3ccc4c(c3)OCCO4)cc2)N1c1ccc(F)cc1` [Example 87, (3R,4S)-4-[4-(2,3-dihydro-1,4-benzodioxin-6-yl)phenyl]-1-(4-fluorophenyl)-3-[(3S)-3-(4-fluorophenyl)-3-hydroxypropyl]azetidin-2-one] has an inhibition at 1 mg/kg [1] of 59%.
In the case of `O=C1[C@H](CC[C@H](O)c2ccc(F)cc2)[C@@H](c2ccc(-c3cccc([N+](=O)[O-])c3)cc2)N1c1ccc(F)cc1` [Example 23, (3R,4S)-1-(4-fluorophenyl)-3-[(3S)-3-(4-fluorophenyl)-3-hydroxypropyl]-4-(3'-nitrobiphenyl-4-yl)azetidin-2-one], the inhibition at 10 mg/kg [2] is reported as 54%.
In the case of `N#Cc1cccc(-c2ccc([C@@H]3[C@@H](CC[C@H](O)c4ccc(F)cc4)C(=O)N3c3ccc(F)cc3)cc2)c1` [Example 14, 4'-{(2S,3R)-1-(4-fluorophenyl)-3-[(3S)-3-(4-fluorophenyl)-3-hydroxypropyl]-4-oxoazetidin-2-yl}biphenyl-3-carbonitrile], the inhibition at 5 mg/kg (po, Table 1, footnote 3, perorally, 5 mg/kg, 3H levels in serum three hours after 3H-cholesterol) is reported as 32%.
Molecule `O=C1[C@H](CC[C@H](O)c2ccc(F)cc2)[C@@H](c2ccc(-c3cccc(O)c3)cc2O)N1c1ccc(F)cc1` [Example 121, (3R,4S)-4-(3,3'-dihydroxybiphenyl-4-yl)-1-(4-fluorophenyl)-3-[(3S)-3-(4-fluorophenyl)-3-hydroxypropyl]azetidin-2-one] has an inhibition at 1 mg/kg [3] of 72%.
Molecule `CN(C)c1ccc(-c2ccc([C@@H]3[C@@H](CC[C@H](O)c4ccc(F)cc4)C(=O)N3c3ccc(F)cc3)cc2)cc1` [Example 17, (3R,4S)-4-[4'(dimethylamino)biphenyl-4-yl]-1-(4-fluorophenyl)-3-[(3S)-3-(4-fluorophenyl)-3-hydroxypropyl]azetidin-2-one] has an inhibition at 1 mg/kg [1] of 43%.
Work on `O=C1[C@H](CC[C@H](O)c2ccc(F)cc2)[C@@H](c2ccc(-c3cccc(S)c3)cc2)N1c1ccc(F)cc1` [Example 119, (3R,4S)-1-(4-fluorophenyl)-3-[(3S)-3-(4-fluorophenyl)-3-hydroxypropyl]-4-(3'-mercaptobiphenyl-4-yl)azetidin-2-one] yielded an inhibition at 1 mg/kg [1] of 56%.
In the case of `O=C1[C@H](CC[C@H](O)c2ccc(F)cc2)[C@@H](c2ccc(-c3cccc([C@@H](O)[C@H]4OC(O)[C@H](O)[C@@H](O)[C@@H]4O)c3)cc2)N1c1ccccc1` (stereo partly drawn) [Example 72, (6R)-6-C-(4'-{(2S,3R)-3-[(3S)-3-(4-Fluorophenyl)-3-hydroxypropyl]-4-oxo-1-phenylazetidin-2-yl}biphenyl-3-yl)-D-glucopyranose], the inhibition at 0.3 mg/kg (po) is reported as 27%.
`O=C1[C@H](CC[C@H](O)c2ccc(F)cc2)[C@@H](c2ccc(-c3cccc([C@H](O)[C@H]4OC(O)[C@H](O)[C@@H](O)[C@@H]4O)c3)cc2)N1c1ccccc1` (stereo partly drawn) [Example 71, (6S)-6-C-(4'-{(2S,3R)-3-[(3S)-3-(4-Fluorophenyl)-3-hydroxypropyl]-4-oxo-1-phenylazetidin-2-yl}biphenyl-3-yl)-D-glucopyranose] gave an inhibition at 1 mg/kg [3] of 65%.
`CCOc1cccc(-c2ccc([C@@H]3[C@@H](CC[C@H](O)c4ccc(F)cc4)C(=O)N3c3ccc(F)cc3)cc2)c1` [Example 100, (3R,4S)-4-(3'-ethoxybiphenyl-4-yl)-1-(4-fluorophenyl)-3-[(3S)-3-(4-fluorophenyl)-3-hydroxypropyl]azetidin-2-one] gave an inhibition at 1 mg/kg [1] of 54%.
In the case of `O=C(O)c1cccc(-c2ccc([C@@H]3[C@@H](CC[C@H](O)c4ccc(F)cc4)C(=O)N3c3ccc(F)cc3)cc2)c1` [Example 21, 4'-{(2S,3R)-1-(4-fluorophenyl)3-[(3S)-3-(4-fluorophenyl)-3-hydroxypropyl]-4-oxoazetidin-2-yl]biphenyl-3-carboxylic acid], the inhibition at 1 mg/kg [1] is reported as 68%.
`COc1cccc(-c2ccc([C@@H]3[C@@H](CC[C@H](O)c4ccc(F)cc4)C(=O)N3c3ccc(F)cc3)cc2)c1` [Example 12, (3R,4S)-1-(4-fluorophenyl)-3-[(3S)-3-(4-fluorophenyl)-3-hydroxypropyl]-4-(3'-methoxybiphenyl-4-yl)azetidin-2-one] was tested, and the inhibition at 1 mg/kg [1] was 70%.
Work on `CCOc1ccc(-c2ccc([C@@H]3[C@@H](CC[C@H](O)c4ccc(F)cc4)C(=O)N3c3ccc(F)cc3)cc2)cc1` [Example 101, (3R,4S)-4-(4'-ethoxybiphenyl-4-yl)-1-(4-fluorophenyl)-3-[(3S)-3-(4-fluorophenyl)-3-hydroxypropyl]azetidin-2-one] yielded an inhibition at 1 mg/kg [1] of 41%.
With `O=C1[C@H](CC[C@H](O)c2ccc(F)cc2)[C@@H](c2ccc(-c3cccc(B(O)O)c3)cc2)N1c1ccccc1` [Example 59, (4'-{(2S,3R)-3-[(3S)-3-(4-Fluorophenyl)-3-hydroxypropyl]-4-oxo-1-phenylazetidin-2-yl}biphenyl-3-yl)boronic acid] the inhibition at 1 mg/kg [3] was 70%.
For `O=C(O)c1ccc(-c2ccc([C@@H]3[C@@H](CC[C@H](O)c4ccc(F)cc4)C(=O)N3c3ccc(F)cc3)cc2)cc1` [Example 22, 4'-{(2S,3R)-1-(4-fluorophenyl)3-[(3S)-3-(4-fluorophenyl)-3-hydroxypropyl]-4-oxoazetidin-2-yl]biphenyl-4-carboxylic acid], the inhibition at 1 mg/kg [1] was 52%.
Work on `O=C1[C@H](CC[C@H](O)c2ccc(F)cc2)[C@@H](c2ccc(-c3cccc([C@@H](O)[C@H]4OC(O)[C@H](O)[C@@H](O)[C@@H]4O)c3)cc2O)N1c1ccccc1` (stereo partly drawn) [Example 74, (6R)-6-C-(4'-{(2S,3R)-3-[(3S)-3-(4-Fluorophenyl)-3-hydroxypropyl]-4-oxo-1-phenylazetidin-2-yl}-3'-hydroxybiphenyl-3-yl)-D-glucopyranose] yielded an inhibition at 1 mg/kg [3] of 67%.
`O=Cc1ccc(O)cc1-c1ccc([C@@H]2[C@@H](CC[C@H](O)c3ccc(F)cc3)C(=O)N2c2ccc(F)cc2)cc1` [Example 104, 4'-{(2S,3R)-1-(4-fluorophenyl)-3-[(3S)-3-(4-fluorophenyl)-3-hydroxypropyl]-4-oxoazetidin-2-yl}-5-hydroxybiphenyl-2-carbaldehyde] was tested, and the inhibition at 1 mg/kg [1] was 52%.
`CS(=O)(=O)c1cccc(-c2ccc([C@@H]3[C@@H](CC[C@H](O)c4ccc(F)cc4)C(=O)N3c3ccccc3)c(O)c2)c1` [Example 123, (3R,4S)-3-[(3S)-3-(4-fluorophenyl)-3-hydroxypropyl]-4-[3-hydroxy-3'-(methylsulfonyl)biphenyl-4-yl]-1-phenylazetidin-2-one] was tested, and the inhibition at 1 mg/kg [3] was 72%.
`O=C1[C@H](CC[C@H](O)c2ccc(F)cc2)[C@@H](c2ccc(-c3cccc(B(O)O)c3)cc2)N1c1ccc(F)cc1` [Example 115, (4'-{(2S,3R)-1-(4-fluorophenyl)-3-[(3S)-3-(4-fluorophenyl)-3-hydroxypropyl]-4-oxoazetidin-2-yl}biphenyl-3-yl)boronic acid] gave an inhibition at 1 mg/kg [1] of 70%.
`O=C1[C@H](CC[C@H](O)c2ccc(F)cc2)[C@@H](c2ccc(-c3ccc(O)cc3)cc2)N1c1ccc(F)cc1` [Example 2, (3R,4S)-1-(4-fluorophenyl)-3-[(3S)-3-(4-fluorophenyl)-3-hydroxypropyl]-4-(4'-hydroxybiphenyl-4-yl)azetidin-2-one] was tested, and the inhibition at 1 mg/kg [1] was 54%.
`COC(=O)c1ccc(-c2ccc([C@@H]3[C@@H](CC[C@H](O)c4ccc(F)cc4)C(=O)N3c3ccc(F)cc3)cc2)cc1` [Example 89, methyl 4'-{(2S,3R)-1-(4-fluorophenyl)-3-[(3S)-3-(4-fluorophenyl)-3-hydroxypropyl]-4-oxoazetidin-2-yl} biphenyl-4-carboxylate] showed an inhibition at 1 mg/kg [1] of 45%.
For `O=C1[C@H](CC[C@H](O)c2ccc(F)cc2)[C@@H](c2ccc(-c3cccc([C@@H]4O[C@@H](CO)[C@H](O)[C@@H](O)[C@@H]4O)c3)cc2)N1c1ccc(F)cc1` [Example 113, (1S)-1,5-anhydro-1-(4'-{(2S,3R)-1-(4-fluorophenyl)-3-[(3S)-3-(4-fluorophenyl)-3-hydroxypropyl]-4-oxoazetidin-2-yl}biphenyl-3-yl)-L-glucitol], the inhibition at 1 mg/kg [1] was 67%.
Work on `COc1ccc(-c2ccc([C@@H]3[C@@H](CC[C@H](O)c4ccc(F)cc4)C(=O)N3c3ccc(F)cc3)cc2)cc1` [Example 5, (3R,4S)-1-(4-fluorophenyl)-3-[(3S)-3-(4-fluorophenyl)-3-hydroxypropyl]-4-(4'-methoxybiphenyl-4-yl)azetidin-2-one] yielded an inhibition at 10 mg/kg [2] of 26%.
`O=C1[C@H](CC[C@H](O)c2ccc(F)cc2)[C@@H](c2ccc(-c3cccc(P(=O)(O)O)c3)cc2)N1c1ccccc1` [Example 122, (4'-{(2S,3R)-3-[(3S)-3-(4-fIuorophenyI)-3-hydroxypropyl]-4-oxo-1-phenylazetidin-2-yl}biphenyl-3-yl)phosphonic acid] was tested, and the “% inhibition at 1 mg/kg” value (Table 2, perorally, 1 mg/kg, 3H levels in serum three hours after 3H-cholesterol, versus vehicle only control) was 67%.
`O=C1[C@H](CC[C@H](O)c2ccc(F)cc2)[C@@H](c2ccc(-c3ccc([C@@H]4O[C@H](CO)[C@@H](O)[C@H](O)[C@H]4O)cc3)cc2O)N1c1ccccc1` [Example 66, (1S)-1,5-Anhydro-1-(4'-{(2S,3R)-3-[(3S)-3-(4-fluorophenyl)-3-hydroxypropyl]-4-oxo-1-phenylazetidin-2-yl}-3'-hydroxybiphenyl-4-yl)-D-glucitol] gave an inhibition at 0.3 mg/kg (po) of 71%.
`CC(=O)Nc1cccc(-c2ccc([C@@H]3[C@@H](CC[C@H](O)c4ccc(F)cc4)C(=O)N3c3ccc(F)cc3)cc2)c1` [Example 26, N-(4'-{(2S,3R)-1-(4-fluorophenyl)-3-[(3S)-3-(4-fluorophenyl)-3-hydroxypropyl]-4-oxoazetidin-2-yl}biphenyl-3-yl)acetamide] was tested, and the inhibition at 10 mg/kg [2] was 76%.
